Assays:
Test in all cases: relative viability (nuclei count vs DMSO), 5 days (fraction); higher = more cells survive
Zebularine + OSI-027 = compound: O=c1ncccn1[C@@H]1O[C@H](CO)[C@@H](O)[C@H]1O [Zebularine] + COc1cccc2cc(-c3nc([C@H]4CC[C@H](C(=O)O)CC4)n4ncnc(N)c34)[nH]c12 [OSI-027] (partner 0.5 µM)
Summary of the method: (§1)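 Lung cancer cell lines were seeded in 1536-well plates and dosed by pin tool the next day, with either a single drug or a fixed anchor-drug dose combined with five library-drug doses (not always all listed) spaced in √10 steps. Five days later, one step fixed the cells and stained their nuclei (final 0.05% Triton X-100, 1% formaldehyde, 1 ug/ml Hoechst), and nuclei were counted on 4× images. Relative viability is the nuclei count in treated wells divided by the count in vehicle wells, and each value is the median of duplicate plates.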

BI-D1870 + Foretinib = compound: CC(C)CCN1c2nc(Nc3cc(F)c(O)c(F)c3)ncc2N(C)C(=O)C1C [BI-D1870] + COc1cc2c(Oc3ccc(NC(=O)C4(C(=O)Nc5ccc(F)cc5)CC4)cc3F)ccnc2cc1OCCCN1CCOCC1 [Foretinib] (partner 0.25 µM)
Summary of the method: as §1

Zebularine + AZD7762 = compound: O=c1ncccn1[C@@H]1O[C@H](CO)[C@@H](O)[C@H]1O [Zebularine] + NC(=O)Nc1cc(-c2cccc(F)c2)sc1C(=O)N[C@H]1CCCNC1 [AZD7762] (partner 0.2 µM)
Summary of the method: as §1

BI-D1870 + Lapatinib = compound: CC(C)CCN1c2nc(Nc3cc(F)c(O)c(F)c3)ncc2N(C)C(=O)C1C [BI-D1870] + CS(=O)(=O)CCNCc1ccc(-c2ccc3ncnc(Nc4ccc(OCc5cccc(F)c5)c(Cl)c4)c3c2)o1 [Lapatinib] (partner 2 µM)
Summary of the method: as §1

Cell Line	relative viability (Zebularine + OSI-027; first compound 1 µM)	relative viability (Zebularine + OSI-027; first compound 3.162 µM)	relative viability (Zebularine + OSI-027; first compound 10 µM)	relative viability (Zebularine + OSI-027; first compound 31.62 µM)	relative viability (Zebularine + OSI-027; first compound 100 µM)	relative viability (BI-D1870 + Foretinib; first compound 0.04 µM)	relative viability (BI-D1870 + Foretinib; first compound 0.1265 µM)	relative viability (BI-D1870 + Foretinib; first compound 0.4 µM)	relative viability (BI-D1870 + Foretinib; first compound 1.265 µM)	relative viability (BI-D1870 + Foretinib; first compound 4 µM)	relative viability (Zebularine + AZD7762; first compound 1 µM)	relative viability (Zebularine + AZD7762; first compound 3.162 µM)	relative viability (Zebularine + AZD7762; first compound 10 µM)	relative viability (Zebularine + AZD7762; first compound 31.62 µM)	relative viability (Zebularine + AZD7762; first compound 100 µM)	relative viability (BI-D1870 + Lapatinib; first compound 0.04 µM)	relative viability (BI-D1870 + Lapatinib; first compound 0.1265 µM)	relative viability (BI-D1870 + Lapatinib; first compound 0.4 µM)	relative viability (BI-D1870 + Lapatinib; first compound 1.265 µM)	relative viability (BI-D1870 + Lapatinib; first compound 4 µM)
NCI-H441	0.817	0.595	0.401	0.25	0.234	1.08	0.787	1.05	1.05	0.804	1.37	1.27	0.536	0.418	0.369					
NCI-H520	0.281	0.23	0.266	0.298	0.239	0.821	0.724	0.741	0.958	0.818						1	0.714	0.846	0.619	0.704
NCI-H522	0.769	0.544	0.683	0.676	0.707						0.76	0.821	0.767	0.858	0.841					
NCI-H661	0.794	0.671	0.591	0.764	0.627	1.02	0.989	1.04	1.03	0.969						0.56	0.406	0.45	0.442	0.499
NCI-H1299						1.13	1.07	1.08	1.08	0.952						0.903	0.957	0.95	0.915	0.743
NCI-H1563	0.81	0.776	0.572	0.89	0.76	0.957	0.927	0.939	1.04	0.967						1.08	0.898	0.817	0.9	0.917
NCI-H1623	0.428	0.397	0.407	0.561	0.411	0.913	0.843	0.801	0.903	0.794										
NCI-H1648	0.27	0.314	0.244	0.253	0.249						0.587	0.71	0.543	0.615	0.6					
NCI-H1650	0.842	0.663	0.285	0.834	0.416	1.31	0.756	1.08	1.18	1.27						0.822	0.715	0.721	0.753	0.738
NCI-H1703						0.381		0.295	0.355	0.385	0.144	0.173	0.118	0.142	0.103	1.07	0.732	1.29	1.11	0.796
NCI-H1792	0.67	0.668	0.318	0.384	0.366						0.758	0.525	0.332	0.324	0.215	0.926	0.953	0.881	0.967	0.794
NCI-H2009	0.687	0.607	0.508	0.515	0.366	1.31	1.09	1.23	1.12	1						1.01	0.955	0.885	0.741	0.478
NCI-H2023	0.471	0.437	0.314	0.457	0.302	0.919	0.635	0.823	0.851	0.945						0.903	0.745	0.886	0.764	0.59
NCI-H2228	0.604	0.514	0.284	0.607	0.275	1.03	0.806	0.941	0.821	0.647						1.2	0.854	0.989	0.927	0.482
NCI-H2342	0.709	0.621	0.589	0.626	0.627	1.04	1	1.11	1.18	1.23	0.512	0.415	0.399	0.505	0.429					
SK-LU-1	0.369	0.359	0.31	0.291	0.302	0.86	0.676	0.739	0.798	0.525						0.922	0.894	0.791	0.793	0.462
SK-MES-1	0.707	0.606	0.454	0.514	0.288	0.871	0.77	0.706	0.868	0.769						0.468	0.443	0.417	0.509	0.356
SW 900	0.842	0.621	0.306	0.543	0.427	0.855	0.949	0.893	0.751	1.22	0.65	0.57		0.818	0.832					
SW 1573	0.603	0.606		0.506	0.443	0.958	0.783	0.853	0.937	0.881						1.13	1.16	1.11	1.25	1.14

Reference: the supplement of paper PMC10307832
